Patent publication US11696917B2, “Agent enhancing antitumor effect using pyrazolo[3,4-d]pyrimidine compound” (TAIHO PHARMACEUTICAL CO., LTD., priority 2017, dated 2023)

Experiments:
[1] = tested on: KPL-4 (human breast cancer); assay: Combination of Compound 1 and other antitumor agents (in vitro), CellTiter-Glo, median effect method; assay type: cell-based
Experimental: The supplier of each reagent, the suppliers of tumor cell lines, the media used, and the numbers of cells to be inoculated are shown in the tables below.
The cells were inoculated at 20 μL/well to a 384-well culture plate (Corning Inc.). The plate inoculated with the cells were cultured in an incubator set to 37° C. and 5% CO2. On the day following inoculation, each of mixed solutions of Compound 1 and each other antitumor agent at varying combinations of concentrations was added to the cells. Specifically, 8 serial dilutions (including (0 nM)) of Compound 1 and 10 serial dilutions (including (0 nM)) of the other antitumor agent were prepared using Leibovitz's L-15 medium containing 10% FBS, or ATCC formulated RPMI-1640 medium containing 10% FBS. Drug solutions in which equal amounts of the respective serial dilutions of the compounds were dispensed were mixed at a ratio of 1:1 to prepare a total of 80 mixed drug solutions including every combination. Each of these mixed drug solutions was added at 5 μL/well (N=4) to the plate, followed by further culture for 3 days under conditions of 37° C. and 5% CO2.
Three days later, CellTiter-Glo™ 2.0 Reagent (Promega Corporation) was added thereto at 25 μL/well, and chemiluminescence was measured using a plate reader (EnSpire® Multimode Plate Reader, PerkinElmer Japan Co., Ltd.).
The enhancement of an effect by combined use of the drugs was evaluated according to a method known in the art (a method described in Trends Pharmacol. Sci., 4, 450-454, 1983 or Pharmacol Rev., 58 (3), 621-81, 2006).
An average value from 4 wells of each combination was calculated from the obtained data, and a cell survival rate normalized against a control supplemented with a medium containing a vehicle was calculated. A Fa (fraction of affect) value was calculated by subtracting the cell survival rate from 1. Median effect analysis software CalcuSyn 2.0 (CalcuSyn, Inc.) for calculation by the median effect method was used in the calculation of CI.
As for the combinations of the concentrations of both the drugs for calculating CI, a Fa value closer to 1 presumably means a concentration range in which one of the drugs had too strong an effect, and a Fa value closer to 0 presumably means a concentration range in which any of the drugs had too weak an effect. Since these concentration ranges were not appropriate for the discussion of a synergistic effect, combinations that satisfied 0.2 S Fa 0.8 were extracted from the combinations of the respective concentrations of Compound 1 and the other antitumor agent on the basis of the calculated Fa value.
An effect of combined use was determined as shown in the table below (Pharmacol Rev., 58 (3), p. 621-81, 2006).

[2] = tested on: Human stomach cancer cells 4-1st; assay: Combination of Compound 1 and trastuzumab emtansine (in vivo), subcutaneous tumor in nude mice; conditions: for T/C (%): Day 15; for BWC (%) Day 15 Mean: mouse, in vivo, po
Description: Human stomach cancer cells 4-1st were obtained as fragment tumor from the Central Institute for Experimental Animals. Tumor was excised approximately one month after subcutaneous transplantation and passage in a nude mouse (BALB/cAJcl-nu/nu, CLEA Japan, Inc.), and prepared into a fragment of approximately 2 mm square. A transplantation needle was packed with one fragment and subcutaneously inserted from around the right most distal rib of a nude mouse. After entrance to the right back, the inner cylinder was pushed to eject and transplant the tumor. Electronic calipers were used in tumor size measurement, and the major axis and the minor axis of the tumor of each mouse were measured by sandwiching the tumor between the measuring surfaces of the electronic calipers (Days 0, 4, 8, 11 and 15). A tumor volume (TV) was calculated from the major axis and the minor axis. A relative tumor volume (RTV) and a rate of change in relative tumor volume (T/C) were calculated from the calculated tumor volume. TV, RTV, and T/C were calculated according to the following expressions. Tumor volume TV (mm^3)=(Major axis, mm)×(Minor axis, mm)×(Minor axis, mm)/2 Relative tumor volume RTV=(TV on the day of measurement)/(TV on the day of grouping) Rate of change in relative tumor volume T/C (%)=(Average RTV of an administration group)/(Average RTV of a control group)×100
An electronic balance for animals was used in body weight measurement. A rate of change in body weight on day n (BWCn) was calculated from the body weight on day n (BWn) according to the following expression. Rate of change in body weight BWCn (%)=(BWn−BW0)/BW0×100
Nude mice whose TV reached 100 to 300 mm^3 were selected, and six animals were assigned to each group by the equal number method (MiSTAT (ver. 2.0)) such that average TV was equalized among groups.
The presence or absence of an effect of combined use and toxicity were determined from tumor sizes and body weights on the day of grouping (Day 0) and the day of evaluation (Day 15). During the administration period, the body weights were measured every day for the calculation of the amount of a dosing solution.

[3] = tested on: human stomach cancer cell line NCI-N87; assay: Combination of Compound 1 and capecitabine (in vivo), subcutaneous tumor in nude mice; design: species or system nude mouse (BALB/cAJcl-nu/nu); conditions: for T/C (%): Day 15
Experimental: A human stomach cancer cell line NCI-N87 was obtained from American Type Culture Collection (ATCC). The cell line was cultured at 37° C. in a 5% CO2 incubator using RPMI-1640 (containing 4.5 g/L glucose, 10 mM HEPES, and 1 mM sodium pyruvate) (Wako Pure Chemical Industries, Ltd.) medium containing 10% fetal bovine serum (FBS).
The NCI-N87 cells were resuspended at a concentration of 8×10^7 cells/mL in PBS.
The cell suspension was subcutaneously transplanted in an amount of 8×10^6 cells/0.1 mL to the right chest of a 6-week-old nude mouse (BALB/cAJcl-nu/nu, CLEA Japan, Inc.) using a 1 mL syringe for tuberculin and a 25 G injection needle.
Electronic calipers were used in tumor size measurement.

[4] = tested on: Human stomach cancer cells 4-1st; assay: Combination of Compound 1 and trastuzumab (in vivo), subcutaneous tumor in nude mice; design: species or system nude mouse (BALB/cAJcl-nu/nu); conditions: for T/C (%): Day 15; for BWC (%) Day 15 Mean: mouse, in vivo, po
[5] = Compound 1 68.6 nM + Paclitaxel 0.0229 nM, ratio 1:0.00033, KPL-4
[6] = Compound 1 68.6 nM + Paclitaxel […], ratio 1:0.00011, KPL-4
[7] = Compound 1 206 nM + Paclitaxel 0.617 nM, ratio 1:0.0030, KPL-4
[8] = Compound 1 206 nM + Paclitaxel 1.85 nM, ratio 1:0.0090, KPL-4
[9] = Compound 1 617 nM + Paclitaxel 1.85 nM, ratio 1:0.0030, KPL-4
[10] = Compound 1 1852 nM + Paclitaxel 1.85 nM, ratio 1:0.0010, KPL-4
[11] = Compound 1 5556 nM + Paclitaxel 1.85 nM, ratio 1:0.00033, KPL-4
[12] = Compound 1 5556 nM + Paclitaxel 5.56 nM, ratio 1:0.0010, KPL-4
[13] = Compound 1 16667 nM + Paclitaxel 1.85 nM, ratio 1:0.00011, KPL-4
[14] = Compound 1 50000 nM + Paclitaxel 1.85 nM, ratio 1:0.000037, KPL-4
[15] = Compound 1 7.5 mg/kg/day p.o. Days 1-14
[16] = Compound 1 15 mg/kg/day p.o. Days 1-14
[17] = Compound 1 30 mg/kg/day p.o. Days 1-14

Work on `C=CC(=O)N1CCC[C@@H](n2nc(C(=O)Nc3ccc(CC(=O)N(C)C)c(C)c3C)c3c(N)ncnc32)C1` [Compound 1, (R)-1-(1-acryloylpiperidin-3-yl)-4-amino-N-(4-(2-(dimethylamino)-2-oxoethyl)-2,3-dimethylphenyl)-1H-pyrazolo[3,4-d]pyrimidine-3-carboxamide] yielded a CI [1, 5] of 0.03, a Fa [1, 5] of 0.44 and a CI [1, 6] of 0.15. It also gave a Fa [1, 6] of 0.32, a CI [1, 7] of 0.50 and a Fa [1, 7] of 0.33. For the same compound, the CI [1, 8] was 0.30, the Fa [1, 8] was 0.52 and the CI [1, 9] was 0.31. The Fa [1, 9] was 0.54, the CI [1, 10] was 0.36 and the Fa [1, 10] was 0.55. It also gave a CI [1, 11] of 0.48, a Fa [1, 11] of 0.57 and a CI [1, 12] of 0.44. It also gave a Fa [1, 12] of 0.78, a CI [1, 13] of 0.38 and a Fa [1, 13] of 0.66. The CI [1, 14] was 0.13, the Fa [1, 14] was 0.86 and the “RTV Day 15 Mean ± SD” value [2, 15] was 5.92 ± 0.38. The “T/C (%)” value [2, 15] was 51.6%, the “RTV Day 15 Mean ± SD” value [2, 16] was 3.58 ± 0.41 and the “T/C (%)” value [2, 16] was 31.2%. For the same compound, the “BWC (%) Day 15 Mean” value ([2]; 7.5 mg/kg/day) was 7.41%, the “BWC (%) Day 15 Mean” value ([2]; 15 mg/kg/day) was 3.63% and the “BWC (%) Day 15 Mean” value [3, 16] was 8.35%. For the same compound, the “RTV Day 15 Mean ± SD” value [3, 16] was 1.69 ± 0.39, the “T/C (%)” value [3, 16] was 40.8% and the “BWC (%) Day 15 Mean” value [3, 17] was 6.43%. The “RTV Day 15 Mean ± SD” value [3, 17] was 0.67 ± 0.15, the “T/C (%)” value [3, 17] was 16.3% and the “RTV Day 15 Mean + SD” value [4, 15] was 6.55 ± 0.37. For the same compound, the “T/C (%)” value [4, 15] was 49.0%, the “RTV Day 15 Mean + SD” value [4, 16] was 3.77 ± 0.32 and the “T/C (%)” value [4, 16] was 28.2%. The “BWC (%) Day 15 Mean” value ([4]; 7.5 mg/kg/day) was 5.06% and the “BWC (%) Day 15 Mean” value ([4]; 15 mg/kg/day) was 0.82%.
